Experimental data: paper PMC5069460, “A novel gene cluster allows preferential utilization of fucosylated milk oligosaccharides in Bifidobacterium longum subsp. longum SC596” (Scientific Reports, 2016)

These compounds were tested against T1, BLNG_00936 (SBP) (Bifidobacterium longum, UniProt Q8G848) (assay: glycan array (CFG Mammalian Glycan Array v5.[…]), anti-GST Alexa […]). Conditions: glycan immobilised via spacer; protein 200 ug/ml; pH 7.4, 150 mM NaCl, 2 mM CaCl2, 2 mM MgCl2.
T1 construct: gene fruE; tag kept for detection
T1 sequence (Q8G848 23-327 limits assumed): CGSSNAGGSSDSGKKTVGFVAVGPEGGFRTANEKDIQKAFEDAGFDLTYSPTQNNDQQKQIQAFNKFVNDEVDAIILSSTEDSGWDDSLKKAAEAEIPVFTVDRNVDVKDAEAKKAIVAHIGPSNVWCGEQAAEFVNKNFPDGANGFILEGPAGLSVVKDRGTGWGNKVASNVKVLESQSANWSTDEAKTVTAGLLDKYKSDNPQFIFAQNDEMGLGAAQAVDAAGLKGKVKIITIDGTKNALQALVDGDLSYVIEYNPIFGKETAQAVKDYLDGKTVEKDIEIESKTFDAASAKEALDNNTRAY
Assay type: binding

| Compound | Average RFU^b |
| --- | --- |
| CC(=O)N[C@H]1[C@H](OCCCN)O[C@H](CO)[C@@H](O[C@@H]2O[C@H](CO)[C@H](O)[C@H](O[C@@H]3O[C@H](CO)[C@H](O)[C@H](O)[C@H]3O)[C@H]2O)[C@@H]1O [Galβ1-3Galβ1-4GlcNAcβ-Sp8] | 126 RFU |

What follows are compounds tested against T2, BLNG_00160 (SBP of LNB/GNB cluster) (Bifidobacterium longum, UniProt Q8G3W5) in the same assay as above. Conditions: glycan immobilised via spacer; protein 200 ug/ml; pH 7.4, 150 mM NaCl, 2 mM CaCl2, 2 mM MgCl2.
T2 construct: gene BL1638; tag kept for detection
T2 sequence (Q8G3W5 24-438): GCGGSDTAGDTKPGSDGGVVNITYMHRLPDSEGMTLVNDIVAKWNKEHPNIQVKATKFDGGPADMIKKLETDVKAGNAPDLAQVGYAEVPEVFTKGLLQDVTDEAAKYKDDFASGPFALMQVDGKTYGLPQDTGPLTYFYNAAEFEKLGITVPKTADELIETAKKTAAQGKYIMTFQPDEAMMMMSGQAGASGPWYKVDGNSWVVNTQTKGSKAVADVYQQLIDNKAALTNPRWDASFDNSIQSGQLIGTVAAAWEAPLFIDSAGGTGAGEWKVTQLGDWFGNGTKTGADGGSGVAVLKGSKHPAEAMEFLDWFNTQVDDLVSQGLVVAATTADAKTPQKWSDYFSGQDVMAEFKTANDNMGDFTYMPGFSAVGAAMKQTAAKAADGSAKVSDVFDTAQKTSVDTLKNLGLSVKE
Assay type: binding

| Compound | Average RFU^b |
| --- | --- |
| CC(=O)N[C@H]1[C@H](OCCN)O[C@H](CO)[C@@H](O)[C@@H]1O[C@@H]1O[C@H](CO)[C@H](O)[C@H](O)[C@H]1O [Galβ1-3GlcNAcβ-Sp0] | 969 RFU |
| CC(=O)N[C@H]1[C@H](OCCCN)O[C@H](COS(=O)(=O)O)[C@@H](O)[C@@H]1O[C@@H]1O[C@H](CO)[C@H](O)[C@H](O)[C@H]1O [Galβ1-3(6S)GlcNAcβ-Sp8] | 2646 RFU |
| Galβ1-3GalNAcβ1-3Gal-Sp21 | 2528 RFU |
| Galβ1-3GlcNAcβ1-3Galβ1-4Glcβ-Sp10 | 1784 RFU |
| CC(=O)N[C@H]1[C@H](OCCN)O[C@H](CO)[C@@H](O[C@@H]2O[C@H](CO)[C@H](O)[C@H](O[C@@H]3O[C@H](CO)[C@@H](O)[C@H](O[C@@H]4O[C@H](CO)[C@H](O)[C@H](O)[C@H]4O)[C@H]3NC(C)=O)[C@H]2O)[C@@H]1O [Galβ1-3GlcNAcβ1-3Galβ1-4GlcNAcβ-Sp0] | 2029 RFU |
| CC(=O)N[C@H]1[C@H](O[C@@H]2[C@H](O)[C@@H](O)[C@H](O[C@H]3[C@H](O)[C@@H](O)[C@H](OCCCN)O[C@@H]3CO)O[C@@H]2CO)O[C@H](CO)[C@H](O)[C@@H]1O[C@@H]1O[C@H](CO)[C@H](O)[C@H](O)[C@H]1O [Galβ1-3GalNAcβ1-4Galβ1-4Glcβ-Sp8] | 3430 RFU |
| CC(=O)N[C@H]1[C@H](OCCCN)O[C@H](CO)[C@@H](O[C@@H]2O[C@H](CO)[C@H](O)[C@H](O[C@@H]3O[C@H](CO)[C@H](O)[C@H](O)[C@H]3O)[C@H]2O)[C@@H]1O [Galβ1-3Galβ1-4GlcNAcβ-Sp8] | 4654 RFU |

The compounds below were run against T3, BLNG_01257 (SBP of FHMO cluster) (Bifidobacterium longum, UniProt A0A0M3T5K2) in the same assay as above. Conditions: glycan immobilised via spacer; protein 200 ug/ml; pH 7.4, 150 mM NaCl, 2 mM CaCl2, 2 mM MgCl2.
T3 construct: tag kept for detection; homolog of Blon_0343 and Blon_2202
T3 sequence (A0A0M3T5K2 23-460 limits assumed): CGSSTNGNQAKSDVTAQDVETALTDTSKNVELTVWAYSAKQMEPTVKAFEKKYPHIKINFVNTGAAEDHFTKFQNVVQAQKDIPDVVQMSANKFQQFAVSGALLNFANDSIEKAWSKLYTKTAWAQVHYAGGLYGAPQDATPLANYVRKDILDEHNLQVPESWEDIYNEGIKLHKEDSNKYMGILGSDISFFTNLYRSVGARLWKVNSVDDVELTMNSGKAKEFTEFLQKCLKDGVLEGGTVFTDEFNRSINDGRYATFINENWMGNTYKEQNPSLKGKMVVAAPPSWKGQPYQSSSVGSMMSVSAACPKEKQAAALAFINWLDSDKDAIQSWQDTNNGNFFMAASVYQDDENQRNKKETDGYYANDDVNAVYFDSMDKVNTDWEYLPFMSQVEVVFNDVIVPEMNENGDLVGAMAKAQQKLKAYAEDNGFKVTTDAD
Assay type: binding

| Compound | Average RFU^b |
| --- | --- |
| C[C@@H]1O[C@@H](O[C@H]2C(O)O[C@H](CO)[C@H](O)[C@@H]2O)[C@@H](O)[C@H](O)[C@@H]1O (stereo partly shown) [Fuca1-2Galβ-Sp8] | 2161 RFU |
| Fuca1-2Galβ1-4Glcβ-Sp0 | 360 RFU |
